Assay results taken from patent publication US8980564B2, “Predictive markers for taxane responsiveness and methods of use thereof” (The Governors of the University of Alberta, priority 2009, dated 2015).

What was measured:
Bad:Bcl-XL = experiment: Co-immunoprecipitation of Bad with Bcl-XL; conditions: 25 nM paclitaxel 48 h or 2.5 uM STS 4 hours
Bad = experiment: Subcellular fractionation, Bad localization by Western blotting; conditions: MCF-7, MDA-MB-468, SKBR-3; 25 nM paclitaxel 48 h or 2.5 uM STS 4 hours
breast cancer = experiment: Survival analysis of breast cancer patients after adjuvant docetaxel-based chemotherapy, stratified by Bad staining; assay type: in vivo, human; conditions: 180 women, multivariate modeling
Description: Tissue micoarrays were made from formalin fixed breast tissues in triplicate 0.6 mm cores using the TMArrayer™. Tissues on slides were deparaffinized in xylene and rehydrated in decreasing concentrations of ethanol to water. Endogenous peroxidase was quenched in 0.3% H2O2 for 10 minutes. For antigen retrieval, slides were placed in boiling citrate buffer pH 6.0 for 10 minutes followed by rinsing in water for 10 minutes. Tissues were incubated with the BAD antibody (Cell Signaling Technology) at a dilution of 1/25 at 4° C. overnight in a humidified container or with Bik antibody (Cell signaling Technology) at a dilution of 1/50 at room temperature in a humidified container. Slides were washed 2 times in PBS for 5 minutes. For the secondary antibody, Anti-Rabbit EnVision+System-HRP (Dako) was incubated on the tissues at room temperature for 30 minutes. Slides were washed 2 times in PBS and then tissues were incubated with DAB (Dako) for 10 minutes. Slides were rinsed in water for 10 minutes followed by a soak in 1% Copper Sulfate for 5 minutes. Haematoxylin was used to counterstain the tissues. […] Staining intensity was scored as 0 (absent), 1 (weak), or 2 (strong). […] Using ROC, an optimized cutpoint of 0.57 was chosen for Bad expression and an optimized cutpoint of 0.1 was chosen for Bik expression, and patients were analyzed based on this cutpoint. […]

breast cancer cell lines = experiment: Apoptosis assays (TMRE loss, annexin V) in a panel of five breast cancer cell lines; assay type: cell-based, human; conditions: 25 nM paclitaxel; TMRE loss and annexin V positivity
Description: (§1) Apoptosis assays were performed as described previously (Czernick et al., 2009). Briefly, breast cancer cell lines were treated with dimethyl sulfoxide (DMSO) vehicle control or 25 nM paclitaxel, which corresponds to a clinically relevant dose (Blagosklonny and Fojo, 1999; Jordan et al., 1996). After treatment, samples were divided and analyzed for apoptosis. Apoptosis was evaluated by fluorescence-activated cell sorting (FACS) analysis using the following apoptotic markers: (i) mitochondrial dysfunction [loss of mitochondrial electrochemical potential and decreases in tetramethyl rhodamine ethyl ester (TMRE)]. Percent specific TMRE loss was determined as (% TMRE negative cells of treated sample−% TMRE negative cells of untreated control sample); (ii) increases in phosphatidylserine externalization (Annexin V). Percent specific annexin V positivity was determined as (% annexin V positive cells of treated sample−% annexin V positive cells of untreated control sample).
To investigate which BH3-only proteins are involved in paclitaxel-induced apoptosis, a panel of five validated breast cancer cell lines acquired from Dr. Gordon Mills (M.D. Anderson Cancer Center, U. of Texas) was analyzed; validated cells were used to avoid any controversy with respect to lineage authenticity (Graham et al., 1986; Osborne et al., 1987). […]

MCF-7 cell line = experiment: Apoptosis assays (TMRE loss, annexin V) in MCF-7; assay type: cell-based, human; conditions: 25 nM paclitaxel
Description: as §1
Each cell line was treated with 25 nM of paclitaxel, which induces a clinically relevant intracellular accumulation of the drug in tissue culture conditions (Derry et al., 1998; Jordan et al., 1996). After the indicated amount of time, apoptosis was assessed by measuring mitochondrial electrochemical potential loss (TMRE loss) and phosphatidyl serine externalization (annexin V positivity) (FIG. 1A).

Bcl-XL = Bcl-XL protein level in treated cells; assay type: cell-based, human; conditions: paclitaxel-treated cells
Text: In fact, mitotic arrest-mediated repression of Bcl-XL contributes to cell death via liberation of Bax (Upreti et al., 2008).

MCF-7 cells = experiment: DNA content analysis by propidium iodide staining (cell cycle); assay type: cell-based, human; conditions: up to 24 hours in paclitaxel
Description: Samples were fixed at −20° C. in ice-cold 70% ethanol for a minimum of 24 hours. After fixation, the samples were stained with 20 ug/ml propidium iodide, 2 mg/ml RNase, 0.1% Triton X-100 in PBS for 30 minutes at 4° C. Samples were analyzed in the FL-2 channel on the FACScan as previously described, with the exception that doublet discrimination was achieved by gating on the smaller width G2 cells as determined by analysis of pulse width versus pulse area (Goping et al., 2008).
To verify that the increased proportion of cells in G1 was due to delayed G1 exit and not increased G1 entry, G1 entry was inhibited by arresting cells at G2/M with paclitaxel. […] In time course analyses, the progression of cells from G1 through S to G2/M was delayed in Bad-depleted cells relative to control transfected cells. […] Based on these observations, and again while not wishing to be bound by theory, it was concluded that Bad contributes to cell cycle progression by facilitating exit from the G1 phase of the cell cycle and is supported by a similar role of Bad in rat fibroblasts (Chattopadhyay et al., 2001).

| Compound | association of Bad and Bcl-XL (Bad:Bcl-XL) | mitochondrial translocation of Bad (Bad) | hazard ratio of relapse, low Bad tumour staining intensity (breast cancer; 95% CI 1.05-3.66) | death hazard ratio, low Bad tumour staining intensity (breast cancer; 95% CI 1.05-3.66 as printed) | relative paclitaxel sensitivities of the breast cancer cell lines, rank order of increasing sensitivity (breast cancer cell lines) | cell death based on mitochondrial dysfunction and cellular morphology (MCF-7 cell line; MCF-7) | loss of mitochondrial potential (TMRE loss) (MCF-7 cell line; MCF-7) | phosphatidyl serine externalization (annexin V positivity) (MCF-7 cell line; MCF-7, cells do not express caspase 3) | levels of Bcl-XL protein (Bcl-XL) | mitotic arrest (G2/M) (MCF-7 cells) |
| --- | --- | --- | --- | --- | --- | --- | --- | --- | --- | --- |
| CN[C@@H]1C[C@H]2O[C@@](C)([C@@H]1OC)n1c3ccccc3c3c4c(c5c6ccccc6n2c5c31)C(=O)NC4 [STS, staurosporine] | remained as a complex | migrated to mitochondria | – | – | – | – | – | – | – | – |
| CC(=O)O[C@@]12CO[C@@H]1C[C@H](O)[C@@]1(C)C(=O)[C@H](O)C3=C(C)[C@@H](OC(=O)[C@H](O)[C@@H](NC(=O)OC(C)(C)C)c4ccccc4)C[C@@](O)([C@@H](OC(=O)c4ccccc4)[C@H]21)C3(C)C [docetaxel] | – | – | 1.96 | 3.65 | – | – | – | – | – | – |
| CC(=O)O[C@H]1C(=O)[C@@]2(C)[C@H]([C@H](OC(=O)c3ccccc3)[C@]3(O)C[C@H](OC(=O)[C@H](O)[C@@H](NC(=O)c4ccccc4)c4ccccc4)C(C)=C1C3(C)C)[C@]1(OC(C)=O)CO[C@@H]1C[C@@H]2O [paclitaxel] | decreased association of Bad and Bcl-XL | did not induce mitochondrial translocation of Bad | – | – | MDA-MB-231, T47-D, MDA-MB-468, MCF-7 and SKBR-3 | induced significant death | robust loss of mitochondrial potential | blunted | reduced levels of Bcl-XL protein | induced mitotic arrest |
